Values quoted from earlier work in patent publication US20250311762A1, “FORMULATION AND METHOD FOR AN EXERCISE SUPPORTING NUTRITIONAL SUPPLEMENT” (BullFit, LLC., priority 2024, published 2025).

Legend:
[1] = tested on: anaerobic strength performance; conditions: athletes supplementing with Betaine
cognitive function = conditions: 2 g per day for 5 days during a demanding military combat training course

Row | SMILES | squat, bench press, and other activities [1] | cognitive function relative to placebo (cognitive function)
1 | C[N+](C)(C)CC(=O)[O-] [Betaine, trimethylglycine] | increased their squat, bench press, and other activities | 
2 | N[C@@H](Cc1ccc(O)cc1)C(=O)O [L-tyrosine, L-Tyrosine] |  | improved various aspects of cognitive function relative to placebo
